The numbers were not newly measured in patent US7932083B2, “DNA participating in hydroxylation of macrolide compound” (priority 2003, dated 2011), which cites them from elsewhere.

For this data set the following is noted: statement of prior art (WO02/060890).

For `CCC(O)C(C)C1OC1CC(C)(O)/C=C/C=C(\C)C1OC(=O)CC(O)CCC(C)(O)C(OC(C)=O)/C=C/C1C` (stereo not shown) [11107D], the antitumor activity result was “excellent antitumor activity”.
